Results published in ChEMBL document CHEMBL2176899, “Structure-activity relationships and blood distribution of antiplasmodial aminopeptidase-1 inhibitors” (J Med Chem, 2012).
Converted amounts (≈) assume the structure as drawn. The source made the active and inactive calls. The calls are words filed in the database; no cut-off is given here.

Test system: not listed separately
Assay: AUC (0 to infinity) in CD1 mouse RBC at 50 mg/kg, ip
Type: ADME, organism-based, Erythrocyte
Design: time infinity, dose 50 mg/kg, route intraperitoneal
Settings: in vivo

Row | SMILES | AUC [µM·h]
1 | O=C(NO)/C(=C\c1ccccc1)C(=O)NCc1ccc(F)cc1 | 98

Test system: not listed separately
Assay: Elimination half life in CD1 mouse RBC at 50 mg/kg, ip
Type: ADME, organism-based, Erythrocyte
Design: dose 50 mg/kg, route intraperitoneal
Settings: red blood cells, read-out: beta t1/2 (converted)

Row | SMILES | half-life [h]
2 | O=C(NO)/C(=C\c1ccccc1)C(=O)NCc1ccc(F)cc1 | 1.5

Test system: not listed separately
Assay: AUC (0 to infinity) in CD1 mouse plasma at 50 mg/kg, ip
Type: ADME, organism-based
Design: time infinity, dose 50 mg/kg, route intraperitoneal
Settings: not given

Row | SMILES | AUC(0-inf) [µM·h]
3 | O=C(NO)/C(=C\c1ccccc1)C(=O)NCc1ccc(F)cc1 | 68

Test system: not listed separately
Assay: Partition coefficient, log D of the compound in octanol-phosphate buffer at pH 7.4
Type: physicochemical
Settings: not given

Row | SMILES | logD
4 | O=C(NO)/C(=C\c1ccc(F)cc1)C(=O)NCc1ccc(F)cc1 | 1.7

Test system: not listed separately
Assay: Metabolic stability in CD1 mouse RBC assessed as N-(4-Fluorobenzyl)-N'-hydroxy-2-[1-phenylmeth-(E)-ylidene]malonamide fromation through GSH-adduct at 50 mg/kg, ip
Type: ADME, organism-based, Erythrocyte
Design: dose 50 mg/kg, route intraperitoneal
Settings: in vivo

Row | SMILES | Stability
5 | O=C(NO)/C(=C\c1ccccc1)C(=O)NCc1ccc(F)cc1 | Stable

Test system: not listed separately
Assay: Drug metabolism assessed as N-(4-Fluorobenzyl)-N'-hydroxy-2-[1-phenylmeth-(E)-ylidene]malonamide fromation through GSH-adduct at 1 uM up to 60 mins
Settings: 1 h

Row | SMILES | Drug metabolism
6 | O=C(NO)/C(=C\c1ccccc1)C(=O)NCc1ccc(F)cc1 | Active

Test system: Plasma
Assay: Metabolic stability in CD1 mouse plasma assessed as N-(4-Fluorobenzyl)-N'-hydroxy-2-[1-phenylmeth-(E)-ylidene]malonamide fromation through GSH-adduct at 50 mg/kg, ip
Type: ADME, organism-based
Design: dose 50 mg/kg, route intraperitoneal
Settings: in vivo

Row | SMILES | Stability
7 | O=C(NO)/C(=C\c1ccccc1)C(=O)NCc1ccc(F)cc1 | Stable

Biological target: Carbonic anhydrase 2 (Homo sapiens) (UniProt P00918)
Assay: Inhibition of human erythrocyte carbonic anhydrase-2 assessed as hydrolysis of 4-nitrophenylacetate at 1 to 50 uM
Settings: not given

Row | SMILES | inhibition
8 | O=C(NO)/C(=C\c1ccccc1)C(=O)NCc1ccc(F)cc1 | inactive

Test system: Liver
Assay: Metabolic stability in mouse liver microsomes at 1 uM after 30 mins
Type: ADME, Microsome
Settings: 0.5 h

Row | SMILES | Stability
9 | O=C(NO)/C(=C\c1ccccc1)C(=O)NCc1ccc(F)cc1 | Stable

Test system: Plasmodium falciparum
Assay: microbe, parasite or virus in culture
Settings: 3D7, 72 h
Description: Antimalarial activity against Plasmodium falciparum 3D7 infected in human O positive erythrocytes under low oxygen atmosphere after 72 hrs by spectrophotometric analysis

Row | SMILES | IC50 [µM]
10 | CC(C)C[C@H](NC(=O)[C@@H](O)[C@H](N)Cc1ccccc1)C(=O)O [UBENIMEX] | 8
11 | NC(CCc1ccccc1)P(=O)(O)CC(Cc1ccccc1)C(=O)O (centres undefined) | 24

Test system: not listed separately
Assay: AUC (0 to last) in CD1 mouse plasma at 50 mg/kg, ip
Type: ADME, organism-based
Design: time 0 - last, dose 50 mg/kg, route intraperitoneal
Settings: not given

Row | SMILES | AUC(0-t) [µM·h]
12 | O=C(NO)/C(=C\c1ccccc1)C(=O)NCc1ccc(F)cc1 | 66

Test system: Plasmodium falciparum
Assay: microbe, parasite or virus in culture
Settings: K1, 72 h
Description: Antimalarial activity against Plasmodium falciparum K1 infected in human O positive erythrocytes under low oxygen atmosphere after 72 hrs by spectrophotometric analysis

Row | SMILES | IC50 [µM]
13 | O=C(NO)/C(=C\c1ccc(F)cc1)C(=O)NCc1ccc(F)cc1 | 30.4
14 | O=C(NO)C(Cc1ccccc1)C(=O)NCc1ccccc1F (centres undefined) | 37.9
15 | O=C(NO)C(Cc1ccccc1)C(=O)NCc1ccncc1 (centres undefined) | > 64
16 | O=C(NO)/C(=C\c1ccccc1)C(=O)NCc1ccc(F)cc1 | 11
17 | CC(Cc1ccccc1)(C(=O)NO)C(=O)NCc1ccc(F)cc1 (centres undefined) | 50.1
18 | O=C(NO)C(Cc1ccc(F)cc1)C(=O)NCc1ccccc1 (centres undefined) | 36.5
19 | O=C(NO)C(Cc1ccccc1)C(=O)NCc1ccc(F)cc1 (centres undefined) | 17.4
20 | O=C(NO)C(Cc1ccccc1)C(=O)NCc1cccc(F)c1 (centres undefined) | 24.7
21 | O=C(NO)C(Cc1ccc(F)cc1)C(=O)NCc1ccc(F)cc1 (centres undefined) | 41.6

Test system: not listed separately
Assay: AUC (0 to last) in CD1 mouse RBC at 50 mg/kg, ip
Type: ADME, organism-based, Erythrocyte
Design: dose 50 mg/kg, route intraperitoneal, time 0 - last
Settings: red blood cells

Row | SMILES | AUC(0-t) [µM·h]
22 | O=C(NO)/C(=C\c1ccccc1)C(=O)NCc1ccc(F)cc1 | 90

Test system: not listed separately
Assay: Elimination half life in CD1 mouse plasma at 50 mg/kg, ip
Type: ADME, organism-based
Design: dose 50 mg/kg, route intraperitoneal
Settings: read-out: beta t1/2 (converted)

Row | SMILES | half-life [h]
23 | O=C(NO)/C(=C\c1ccccc1)C(=O)NCc1ccc(F)cc1 | 1

Test system: not listed separately
Assay: Half life in rat plasma
Type: ADME, cell-free
Settings: not given

Row | SMILES | half-life [h]
24 | O=C(NO)/C(=C\c1ccc(F)cc1)C(=O)NCc1ccc(F)cc1 | 3
25 | O=C(NO)C(Cc1ccccc1)C(=O)NCc1ccc(F)cc1 (centres undefined) | 0.8

Test system: not listed separately
Assay: Solubility of the compound in PBS at pH 7.4 after 24 hrs
Type: physicochemical
Settings: not given

Row | SMILES | solubility at 24 h [µM]
26 | O=C(NO)/C(=C\c1ccc(F)cc1)C(=O)NCc1ccc(F)cc1 | 190 (≈ 63.1 µg/mL)
27 | O=C(NO)C(Cc1ccccc1)C(=O)NCc1ccc(F)cc1 (centres undefined) | > 200

Test system: Plasma
Assay: Tlast in CD1 mouse plasma at 50 mg/kg, ip
Type: ADME, organism-based
Design: dose 50 mg/kg, route intraperitoneal
Settings: in vivo

Row | SMILES | Tlast [h]
28 | O=C(NO)/C(=C\c1ccccc1)C(=O)NCc1ccc(F)cc1 | 6

Test system: MRC5
Assay: Cytotoxicity against human MRC5 SV2 cells after 72 hrs by resazurin fluorimetric analysis
Type: cell-based
Settings: MRC5, 72 h

Row | SMILES | IC50 [µM]
29 | O=C(NO)/C(=C\c1ccc(F)cc1)C(=O)NCc1ccc(F)cc1 | 32.2
30 | O=C(NO)C(Cc1ccccc1)C(=O)NCc1ccccc1F (centres undefined) | > 64
31 | O=C(NO)C(Cc1ccccc1)C(=O)NCc1ccncc1 (centres undefined) | > 64
32 | O=C(NO)/C(=C\c1ccccc1)C(=O)NCc1ccc(F)cc1 | 32
33 | CC(Cc1ccccc1)(C(=O)NO)C(=O)NCc1ccc(F)cc1 (centres undefined) | > 64
34 | O=C(NO)C(Cc1ccc(F)cc1)C(=O)NCc1ccccc1 (centres undefined) | > 64
35 | O=C(NO)C(Cc1ccccc1)C(=O)NCc1ccc(F)cc1 (centres undefined) | > 64
36 | O=C(NO)C(Cc1ccccc1)C(=O)NCc1cccc(F)c1 (centres undefined) | > 64
37 | O=C(NO)C(Cc1ccc(F)cc1)C(=O)NCc1ccc(F)cc1 (centres undefined) | > 64

Biological target: T1, Aminopeptidase N (Sus scrofa, UniProt P15145)
T1 sequence (P15145 whole entry): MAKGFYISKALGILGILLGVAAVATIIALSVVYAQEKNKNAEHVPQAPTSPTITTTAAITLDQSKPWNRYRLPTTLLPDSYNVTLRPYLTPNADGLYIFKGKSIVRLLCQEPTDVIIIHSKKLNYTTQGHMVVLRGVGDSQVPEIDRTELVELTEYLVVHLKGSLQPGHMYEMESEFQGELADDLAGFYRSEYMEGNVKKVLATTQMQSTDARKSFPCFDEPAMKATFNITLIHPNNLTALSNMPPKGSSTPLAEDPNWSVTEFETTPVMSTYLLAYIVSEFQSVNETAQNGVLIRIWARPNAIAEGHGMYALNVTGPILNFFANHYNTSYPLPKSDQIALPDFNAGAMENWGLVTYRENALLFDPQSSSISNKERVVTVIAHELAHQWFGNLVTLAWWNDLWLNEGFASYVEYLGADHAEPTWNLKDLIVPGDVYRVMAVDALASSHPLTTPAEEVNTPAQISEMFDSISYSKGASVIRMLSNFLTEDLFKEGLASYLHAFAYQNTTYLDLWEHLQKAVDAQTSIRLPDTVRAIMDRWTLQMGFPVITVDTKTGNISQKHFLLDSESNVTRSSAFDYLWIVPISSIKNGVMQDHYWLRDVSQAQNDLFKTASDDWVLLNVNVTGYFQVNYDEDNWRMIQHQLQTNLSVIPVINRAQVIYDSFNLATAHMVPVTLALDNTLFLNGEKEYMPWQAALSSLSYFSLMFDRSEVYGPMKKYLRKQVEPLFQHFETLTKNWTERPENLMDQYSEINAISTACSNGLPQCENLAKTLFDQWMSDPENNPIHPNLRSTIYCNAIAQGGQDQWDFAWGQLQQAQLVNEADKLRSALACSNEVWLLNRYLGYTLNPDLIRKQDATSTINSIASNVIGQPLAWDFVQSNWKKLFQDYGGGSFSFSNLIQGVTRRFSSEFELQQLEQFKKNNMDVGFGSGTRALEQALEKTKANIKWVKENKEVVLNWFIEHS
Assay: Inhibition of porcine kidney microsomal neutral aminopeptidase using Leu-pNA as substrate preincubated for 10 mins
Settings: not given

Row | SMILES | IC50 [µM]
38 | O=C(NO)/C(=C\c1ccc(F)cc1)C(=O)NCc1ccc(F)cc1 | 4.2
39 | O=C(NO)C(Cc1ccccc1)C(=O)NCc1ccccc1F (centres undefined) | 2.22
40 | O=C(NO)C(Cc1ccccc1)C(=O)NCc1ccncc1 (centres undefined) | 4.55
41 | O=C(NO)C(Cc1ccccc1)C(=O)NCc1ccccc1 (centres undefined) | > 10
42 | CC(Cc1ccccc1)(C(=O)NO)C(=O)NCc1ccc(F)cc1 (centres undefined) | > 10
43 | O=C(NO)C(Cc1ccc(F)cc1)C(=O)NCc1ccccc1 (centres undefined) | 1.32
44 | O=C(NO)/C(=C\c1ccc(F)cc1)C(=O)NCc1ccccc1 | 2.4
45 | O=C(NO)/C(=C\c1ccccc1)C(=O)NCc1ccncc1 | 2
46 | O=C(NO)C(Cc1ccccc1)C(=O)NCc1cccc(F)c1 (centres undefined) | 2.33
47 | O=C(NO)C(Cc1ccc(F)cc1)C(=O)NCc1ccc(F)cc1 (centres undefined) | 3.96
48 | O=C(NO)/C(=C/c1ccccc1)C(=O)NCc1ccc(F)cc1 | > 10

Test system: not listed separately
Assay: Inhibition of Plasmodium falciparum AM1 using Leu-pNA as substrate preincubated for 10 mins
Settings: not given

Row | SMILES | IC50 [µM]
49 | O=C(NO)/C(=C\c1ccc(F)cc1)C(=O)NCc1ccc(F)cc1 | 0.043
50 | O=C(NO)C(Cc1ccccc1)C(=O)NCc1ccccc1F (centres undefined) | 0.256
51 | O=C(NO)C(Cc1ccccc1)C(=O)NCc1ccncc1 (centres undefined) | 1.05
52 | O=C(NO)C(Cc1ccccc1)C(=O)NCc1ccccc1 (centres undefined) | 0.125
53 | O=C(NO)/C(=C\c1ccccc1)C(=O)NCc1ccc(F)cc1 | 0.006
54 | CC(Cc1ccccc1)(C(=O)NO)C(=O)NCc1ccc(F)cc1 (centres undefined) | 0.056
55 | O=C(NO)C(Cc1ccc(F)cc1)C(=O)NCc1ccccc1 (centres undefined) | 0.31
56 | O=C(NO)/C(=C\c1ccc(F)cc1)C(=O)NCc1ccccc1 | 0.069
57 | O=C(NO)C(Cc1ccccc1)C(=O)NCc1ccc(F)cc1 (centres undefined) | 0.027
58 | O=C(NO)/C(=C\c1ccccc1)C(=O)NCc1ccncc1 | 0.44
59 | O=C(NO)C(Cc1ccccc1)C(=O)NCc1cccc(F)c1 (centres undefined) | 0.21
60 | O=C(NO)C(Cc1ccc(F)cc1)C(=O)NCc1ccc(F)cc1 (centres undefined) | 0.258
61 | O=C(NO)/C(=C/c1ccccc1)C(=O)NCc1ccc(F)cc1 | 0.33

Test system: not listed separately
Assay: Half life in human plasma
Type: ADME, cell-free
Settings: not given

Row | SMILES | half-life [h]
62 | O=C(NO)/C(=C\c1ccc(F)cc1)C(=O)NCc1ccc(F)cc1 | > 24
63 | O=C(NO)/C(=C\c1ccccc1)C(=O)NCc1ccc(F)cc1 | > 24
64 | O=C(NO)C(Cc1ccccc1)C(=O)NCc1ccc(F)cc1 (centres undefined) | > 24
